# Laboratory results published in patent publication US12655116B2, “Substituted isophthalic acid diamides” (Bayer Aktiengesellschaft, priority 2020, dated 2026).
# Experiments:
# STEME [1] = assay: Post-emergence herbicidal action against STEME; type: in vivo, Stellaria media; conditions: Stellaria media, 504 h
# Outline: (§1)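 Herbicidal effect was scored visually in percent after about 3 weeks in the greenhouse. Plants had been raised in sandy loam and treated post-emergence at the one-leaf stage with formulated compound at 600 to 800 l/ha water plus 0.2% wetting agent.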
# ECHCG [2] = assay: Post-emergence herbicidal action against ECHCG; type: in vivo, Echinochloa crus-galli; conditions: Echinochloa crus-galli, 504 h, dosage 80 g/ha
# Outline: as §1
# VERPE [3] = assay: Pre-emergence herbicidal action against VERPE; type: in vivo, Veronica persica; conditions: Veronica persica, 504 h
# Outline: (§2)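 Herbicidal effect was assessed 3 weeks after treatment by visual comparison with untreated controls, 100% denoting dead plants. Aqueous WP or EC preparations had been applied at 600 to 800 l/ha with 0.2% wetting agent to the soil covering freshly sown seeds.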
# ALOMY = assay: Post-emergence herbicidal action against ALOMY; type: in vivo, Alopecurus myosuroides; conditions: Alopecurus myosuroides, 504 h, dosage 80 g/ha, visual assessment about 3 weeks after treatment vs untreated controls
# Outline: as §1
# AVEFA [4] = assay: Post-emergence herbicidal action against AVEFA; type: in vivo, Avena fatua; conditions: Avena fatua, 504 h, 80 g/ha, visual assessment about 3 weeks after treatment, 100% = plants have died, 0% = like control plants
# Outline: as §1
# ECHCG [5] = assay: Pre-emergence herbicidal action against ECHCG; type: in vivo, Echinochloa crus-galli; conditions: Echinochloa crus-galli, 504 h
# Outline: as §2
# ABUTH [6] = assay: Post-emergence herbicidal action against ABUTH; type: in vivo, Abutilon theophrasti; conditions: Abutilon theophrasti, 504 h, visual assessment about 3 weeks after treatment vs untreated controls
# Outline: as §1
# VIOTR = assay: Post-emergence herbicidal action against VIOTR; type: in vivo, Viola tricolor; conditions: Viola tricolor, 504 h, 80 g/ha
# Outline: as §1
# STEME [7] = assay: Pre-emergence herbicidal action against STEME; type: in vivo, Stellaria media; conditions: Stellaria media, 504 h
# Outline: as §2
# VERPE [8] = assay: Post-emergence herbicidal action against VERPE; type: in vivo, Veronica persica; conditions: Veronica persica, 504 h
# Outline: as §1
# PHBPU = assay: Post-emergence herbicidal action against PHBPU; type: in vivo, Pharbitis purpurea; conditions: Ipomoea purpurea, 504 h, dosage 80 g/ha
# Outline: as §1
# ABUTH [9] = assay: Pre-emergence herbicidal action against ABUTH; type: in vivo, Abutilon theophrasti; conditions: Abutilon theophrasti, 504 h
# Outline: as §2
# AVEFA [10] = assay: Pre-emergence herbicidal action against AVEFA; type: in vivo, Avena fatua; conditions: Avena fatua, 504 h, pre-emergence
# Outline: as §2
# HORMU = assay: Pre-emergence herbicidal action against HORMU; type: in vivo, Hordeum murinum
# Outline: as §2
# LOLRI = assay: Pre-emergence herbicidal action against LOLRI; type: in vivo, Lolium rigidum; conditions: Lolium rigidum, 504 h
# Outline: as §2
# MATIN = assay: Pre-emergence herbicidal action against MATIN; type: in vivo, Matricaria inodora; conditions: Tripleurospermum inodorum, 504 h
# Outline: as §2
# AMARE = assay: Post-emergence herbicidal action against AMARE; type: in vivo, Amaranthus retroflexus; conditions: Amaranthus retroflexus, 504 h, visual assessment about 3 weeks after treatment, 100% = plants have died, 0% = like control plants
# Outline: as §1
# POLCO = assay: Pre-emergence herbicidal action against POLCO; type: in vivo, Polygonum convolvulus; conditions: Fallopia convolvulus, 504 h, dosage 320 g/ha
# Outline: as §2
# [11] = 20 g/ha, scored visually after 3 weeks, 100% = plants have died, 0% = like control plants
structure (smiles),measurement,setting,value
CCn1nnnc1NC(=O)c1ccc(C(F)(F)F)c(C(=O)NC(C)=O)c1Cl [Example 2-337],pest or weed control at 20 g/ha,STEME [1]; 20 g/ha,90%
same,pest or weed control at 80 g/ha,STEME [1]; 80 g/ha,90%
same,pest or weed control at 80 g/ha,ECHCG [2],90%
same,pest or weed control at 20 g/ha,VERPE [3]; dosage 20 g/ha,80%
same,pest or weed control at 80 g/ha,VERPE [3]; dosage 80 g/ha,90%
same,pest or weed control at 320 g/ha,VERPE [3]; dosage 320 g/ha,90%
same,pest or weed control at 80 g/ha,ALOMY,90%
same,pest or weed control at 80 g/ha,AVEFA [4],90%
same,pest or weed control at 20 g/ha,ECHCG [5]; 20 g/ha,80%
same,pest or weed control at 80 g/ha,ECHCG [5]; 80 g/ha,100%
same,pest or weed control at 320 g/ha,ECHCG [5]; 320 g/ha,100%
same,pest or weed control at 20 g/ha,ABUTH [6]; dosage 20 g/ha,100%
same,pest or weed control at 80 g/ha,ABUTH [6]; dosage 80 g/ha,100%
same,pest or weed control at 80 g/ha,VIOTR,90%
same,pest or weed control at 20 g/ha,STEME [7]; dosage 20 g/ha,90%
same,pest or weed control at 80 g/ha,STEME [7]; dosage 80 g/ha,90%
same,pest or weed control at 320 g/ha,STEME [7]; dosage 320 g/ha,100%
same,pest or weed control at 5 g/ha,VERPE [8]; 5 g/ha,80%
same,pest or weed control at 20 g/ha,VERPE [8]; 20 g/ha,100%
same,pest or weed control at 80 g/ha,VERPE [8]; 80 g/ha,100%
same,pest or weed control at 80 g/ha,PHBPU,80%
same,pest or weed control at 80 g/ha,"ABUTH [9]; 80 g/ha, scored visually after 3 weeks vs untreated controls (100% = plants have died, 0% = like control plants)",100%
same,pest or weed control at 320 g/ha,"ABUTH [9]; Dosage: 320 g/ha, scored visually after 3 weeks, 100% = plants have died, 0% = like control plants",100%
same,pest or weed control at 20 g/ha,"ABUTH [9]; dosage 20 g/ha, scored visually after 3 weeks vs untreated controls, 100% = plants have died, 0% = like control plants, read-out: Pre-emergence action against ABUTH (herbicidal activity in percent)",100%
same,pest or weed control at 80 g/ha,AVEFA [10]; 80 g/ha,100%
same,pest or weed control at 20 g/ha,AVEFA [10]; [11],90%
same,pest or weed control at 320 g/ha,"AVEFA [10]; 320 g/ha, scored visually after 3 weeks, 100% = plants have died, 0% = like control plants",100%
same,Pre-emergence action against HORMU,HORMU; [11],90%
same,pest or weed control at 80 g/ha,"HORMU; Hordeum murinum, 504 h, 80 g/ha, pre-emergence",90%
same,pest or weed control at 320 g/ha,"HORMU; Hordeum murinum, 504 h, 320 g/ha, pre-emergence",100%
same,pest or weed control at 80 g/ha,LOLRI; 80 g/ha,80%
same,pest or weed control at 320 g/ha,LOLRI; 320 g/ha,90%
same,pest or weed control at 20 g/ha,MATIN; dosage 20 g/ha,80%
same,pest or weed control at 80 g/ha,MATIN; dosage 80 g/ha,100%
same,pest or weed control at 320 g/ha,MATIN; dosage 320 g/ha,100%
same,pest or weed control at 20 g/ha,AMARE; 20 g/ha,100%
same,pest or weed control at 80 g/ha,AMARE; 80 g/ha,100%
same,pest or weed control at 320 g/ha,POLCO,80%
